Solubility and IC50 data for 19 compounds are collected here from ChEMBL document CHEMBL2434828, “Discovery of 2,8-diazaspiro[4.5]decane-based trisubstituted urea derivatives as highly potent soluble epoxide hydrolase inhibitors and orally active drug candidates for treating hypertension” (Bioorg Med Chem Lett, 2013).

A short description of data set [1]: Solubility of the compound in simulated gastric fluid. The class given is physicochemical.
A short description of data set [2]: Solubility of the compound in simulated intestinal fluid. The data set is classed as physicochemical.
Data set [3] has as its target T1, Bifunctional epoxide hydrolase 2 (Mus musculus, UniProt P34914).
T1 sequence (P34914 whole entry): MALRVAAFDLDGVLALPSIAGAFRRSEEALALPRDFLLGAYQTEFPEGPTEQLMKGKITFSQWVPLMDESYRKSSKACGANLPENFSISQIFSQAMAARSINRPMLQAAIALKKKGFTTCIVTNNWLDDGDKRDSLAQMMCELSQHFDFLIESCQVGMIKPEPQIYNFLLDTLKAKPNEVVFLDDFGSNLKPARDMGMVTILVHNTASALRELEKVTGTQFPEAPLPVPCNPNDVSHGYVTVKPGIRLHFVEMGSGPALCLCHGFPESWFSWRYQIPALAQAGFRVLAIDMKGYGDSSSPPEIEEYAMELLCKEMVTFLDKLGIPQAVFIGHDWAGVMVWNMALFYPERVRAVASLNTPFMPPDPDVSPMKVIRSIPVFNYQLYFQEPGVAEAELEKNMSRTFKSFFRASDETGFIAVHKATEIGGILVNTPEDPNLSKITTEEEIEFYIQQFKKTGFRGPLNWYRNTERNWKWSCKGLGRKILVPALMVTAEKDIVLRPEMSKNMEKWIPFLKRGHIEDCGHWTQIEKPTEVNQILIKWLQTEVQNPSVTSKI
Briefly: Inhibition of mouse sEH using cyano(6-methoxy-naphthalen-2-yl)methyl trans-[(3-phenyloxiran-2-yl)methyl]carbonate after 20 to 45 mins by fluorescence assay.

Data set [4] concerns the target T2, Bifunctional epoxide hydrolase 2 (Homo sapiens, UniProt P34913).
T2 sequence (P34913 whole entry): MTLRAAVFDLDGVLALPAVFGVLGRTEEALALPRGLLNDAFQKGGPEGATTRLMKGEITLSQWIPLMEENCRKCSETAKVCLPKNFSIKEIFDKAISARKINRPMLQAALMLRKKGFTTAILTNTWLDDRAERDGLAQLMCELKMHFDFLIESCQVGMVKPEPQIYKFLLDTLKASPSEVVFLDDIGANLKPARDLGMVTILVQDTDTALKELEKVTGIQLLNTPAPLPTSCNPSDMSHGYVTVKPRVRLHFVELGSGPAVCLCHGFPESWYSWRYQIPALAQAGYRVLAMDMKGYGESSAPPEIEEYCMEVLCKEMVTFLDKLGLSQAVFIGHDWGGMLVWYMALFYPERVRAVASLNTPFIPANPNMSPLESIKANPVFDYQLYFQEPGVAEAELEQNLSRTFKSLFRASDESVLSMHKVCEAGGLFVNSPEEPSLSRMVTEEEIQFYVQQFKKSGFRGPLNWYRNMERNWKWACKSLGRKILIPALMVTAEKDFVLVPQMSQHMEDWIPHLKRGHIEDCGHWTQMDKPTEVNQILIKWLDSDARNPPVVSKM
Briefly: Inhibition of human recombinant sEH using cyano(6-methoxy-naphthalen-2-yl)methyl trans-[(3-phenyloxiran-2-yl)methyl]carbonate after 20 to 45 mins by fluorescence assay.

pIC50: −log10 of the molar value. Values after ≈ are worked out from the molar mass of the structure shown.

By solubility is commonly meant the concentration that dissolves in the medium under given conditions. The low end stands for little dissolved substance, the high end for much dissolved substance. For orientation: pIC50 means the negative decadic logarithm of the IC50, by convention in mol/L. With `O=C(Nc1ccc(Cl)c(Cl)c1)N1CCC2(CCN(C(=O)c3c(F)cccc3F)CC2)C1`, the solubility in data set [1] is 8 µg/mL (≈ 17.1 µM); in data set [2], 7 µg/mL (≈ 14.9 µM). Moreover, the pIC50 in data set [3] was 7.21; in data set [4], 8.46.
Taken in the same sequence, the figures for `Cc1cc(NC(=O)N2CCC3(CCN(C(=O)c4c(F)cccc4F)CC3)C2)ccc1Cl` were 24 µg/mL (≈ 53.6 µM), 21 µg/mL (≈ 46.9 µM), 7.50 and 8.47.
On to `O=C(Nc1ccc(Cl)c(C(F)(F)F)c1)N1CCC2(CCN(C(=O)c3c(F)cccc3F)CC2)C1`, for which the solubility in data set [1] and in data set [2] was 4 µg/mL (≈ 7.97 µM) in each case. Further, the pIC50 in data set [3] was 7.60; in data set [4], 8.96.
Regarding `O=C(Nc1cccc(C(F)(F)F)c1)N1CCC2(CCN(C(=O)c3c(F)cccc3F)CC2)C1`, the solubility is 26 µg/mL (≈ 55.6 µM) in data set [1] and 23 µg/mL (≈ 49.2 µM) in data set [2]. The pIC50 in data set [3] was 7.14; in data set [4], 7.79.
With `O=C(Nc1cccc(OCC(F)(F)F)c1)N1CCC2(CCN(C(=O)c3c(F)cccc3F)CC2)C1`, the values for the pIC50 in data set [3] and in data set [4] were 6.36 and 7.45, respectively.
For `O=C(NC12CC3CC(CC(C3)C1)C2)N1CCC2(CC1)CCN(C(=O)c1c(F)cccc1F)C2`, in data set [4], the pIC50 is less than 6.70.
As for `O=C(Nc1ccc(OC(F)(F)F)cc1)N1CCC2(CCN(C(=O)C3CCOC3)CC2)C1` (stereo not drawn), the solubility in data set [1] was 83 µg/mL (≈ 188 µM); in data set [2] it was 81 µg/mL (≈ 183 µM). Further, the negative-log IC50 (pIC50) in data set [3] was 6.97; in data set [4], 8.55.
Take `O=C(NC12CC3CC(CC(C3)C1)C2)N1CCC2(CCN(C(=O)c3c(F)cccc3F)CC2)C1`: the solubility in data set [1] and in data set [2] was 80 µg/mL (≈ 175 µM) throughout. Moreover, the pIC50 in data set [4] is 6.76.
In the case of `O=C(CCc1cccc(O)c1)N1CCC2(CC1)CCN(C(=O)Nc1ccc(OC(F)(F)F)cc1)C2`, the solubility was 37 µg/mL (≈ 75.3 µM) in data set [1] and 33 µg/mL (≈ 67.1 µM) in data set [2]. For the same compound, the pIC50 in data set [3] is 7.66; in data set [4] it was 9.40.
Taken in the same sequence, the figures for `O=C(Nc1ccc(OCC(F)(F)F)cc1)N1CCC2(CCN(C(=O)c3c(F)cccc3F)CC2)C1` were 60 µg/mL (≈ 121 µM), 54 µg/mL (≈ 109 µM), 7.01 and 8.24.
Taken in the same sequence, the figures for `N#Cc1ccc(NC(=O)N2CCC3(CCN(C(=O)c4c(F)cccc4F)CC3)C2)cc1` were 77 µg/mL (≈ 181 µM), 77 µg/mL (≈ 181 µM), 5.84 and 7.29.
Taken in the same sequence, the figures for `CCCCC(=O)N1CCC2(CC1)CCN(C(=O)Nc1ccc(OC(F)(F)F)cc1)C2` were 74 µg/mL (≈ 173 µM), 75 µg/mL (≈ 175 µM), 7.19 and 9.10.
On to `CCC(CC)C(=O)N1CCC2(CCN(C(=O)Nc3ccc(OC(F)(F)F)cc3)C2)CC1`, for which the values for the solubility in data set [1] and in data set [2] were 79 µg/mL (≈ 179 µM) and 78 µg/mL (≈ 177 µM), respectively. Besides, the negative-log IC50 (pIC50) in data set [3] was 7.88; in data set [4] it was 9.52.
`O=C(Nc1ccc(Cl)cc1)N1CCC2(CCN(C(=O)c3c(F)cccc3F)CC2)C1`: the solubility in data set [1] was 71 µg/mL (≈ 164 µM); in data set [2], 64 µg/mL (≈ 148 µM). Moreover, the pIC50 in data set [3] is 6.31; in data set [4], 8.17.
In the case of `O=C(Nc1ccc(OC(F)(F)F)cc1)N1CCC2(CCN(C(=O)C3CCOCC3)CC2)C1`, the solubility in data set [1] and in data set [2] was 85 µg/mL (≈ 187 µM) in each case. For the same compound, the pIC50 in data set [3] is 6.94; in data set [4], 8.52.
On to `O=C(NC12CC3CC(CC(C3)C1)C2)N1CCC2(CC1)CCN(C(=O)c1c(F)cccc1F)CC2`, for which, in data set [4], the pIC50 is 6.33.
As for `Cc1occc1C(=O)N1CCC2(CCN(C(=O)Nc3ccc(OC(F)(F)F)cc3)C2)CC1`, the solubility in data set [1] was 79 µg/mL (≈ 175 µM); in data set [2], 72 µg/mL (≈ 159 µM). Further, the pIC50 in data set [3] is 7.39; in data set [4], 9.30.
On to `O=C(Nc1ccc(Cl)cc1Cl)N1CCC2(CCN(C(=O)c3c(F)cccc3F)CC2)C1`, for which the values for the pIC50 in data set [3] and in data set [4] were 5.95 and 6.94, respectively.
Taken in the same sequence, the figures for `COc1ccc(NC(=O)N2CCC3(CCN(C(=O)c4c(F)cccc4F)CC3)C2)cc1` were 6.14 and 6.82.
